Laboratory results published in US20250382296A1, “NITROGEN-CONTAINING FUSED THREE RING PRMT5 INHIBITOR, AND PREPARATION METHOD THEREFOR AND PHARMACEUTICAL USE THEREOF” (Abbisko Therapeutics Co., Ltd., priority 2022, published 2025).

Tests used:
[1] = test system: HCT 116 MTAP-knockout cells; assay: Inhibition of proliferation of HCT116 MTAP-knockout cells (CellTiter-Glo, 6 days); assay type: cell-based, human; conditions: for IC50: Homo sapiens, HCT-116, 144 h, proliferation inhibition, HCT116 MTAP-knockout, 6 days, CellTiter-Glo; for Selectivity: IC50 HCT116 wild-type cells / IC50 HCT116 MTAP-knockout cells
Protocol: (§1) 1. HCT 116 MTAP-knockout cells and HCT 116 wild-type MTAP cells were plated in 96-well flat-bottom plates and cultured overnight at 37° C. and […] in McCoy's 5A medium containing 10% fetal bovine serum+1% penicillin-streptomycin.
(§2) 2. The next day, compounds were each dissolved in DMSO, diluted successively with DMSO and medium and then transferred to cell plates; the final concentration of each compound was 10 μM, 4-fold dilution was performed to obtain 9 concentration points, and a DMSO control was provided.
(§3) 3. Cells not treated with compound were subjected to CellTiter-Glo Luminescent Cell Viability Assay (Promega) to detect the cell viability, and reference was made to the kit instructions for the operation; the plates were then placed on an EnVision Multilabel Reader to detect luminescence signals.
(§4) 4. Meanwhile, the cell plates containing cells treated with compounds were cultured continuously at 37° C. and […] CO2 for 6 days.
(§5) 5. Then, the cell viability was also detected by CellTiter-Glo.
(§6) 6. Finally, dose response curves were plotted using the four parameter dose response curve module of GraphPad Prism v 9.2.0 software and proliferation inhibition IC50 (unit: nM) was calculated.

[2] = test system: HCT 116 wild-type MTAP cells; assay: Inhibition of proliferation of HCT116 wild-type MTAP cells (CellTiter-Glo, 6 days); assay type: cell-based; conditions: Homo sapiens, HCT-116, 144 h
Protocol: as §1, §2, §3, §4, §5, §6

Compound | IC50 [1] | IC50 [2] | Selectivity [1]
Cn1cc(N(C(=O)c2cc3c(cc2F)nc(N)c2cncn23)[C@@H]2COc3cc(C(F)(F)F)ccc32)cn1 [Example 218, (S)-4-amino-7-fluoro-N-(1-methyl-1H-pyrazol-4-yl)-N-(6-(trifluoromethyl)-2,3-dihydrobenzofuran-3-yl)imidazo[1,5-a]quinoxaline-8-carboxamide] | 2 nM | 47 nM | 23.5
Cc1ncc2c(N)nc3cc(F)c(C(=O)N(Cc4ccc(C(F)(F)F)cn4)CC4CC4)cc3n12 [Example 168, 4-amino-N-(cyclopropylmethyl)-7-fluoro-1-methyl-N-((5-(trifluoromethyl)pyridin-2-yl)methyl)imidazo[1,5-a]quinoxaline-8-carboxamide] | 111 nM | 7910 nM | 71.3
CN(Cc1ccc(C(F)(F)F)cn1)C(=O)c1ccc2nc(N)c3cncn3c2c1 [Example 146, 4-amino-N-methyl-N-((5-(trifluoromethyl)pyridin-2-yl)methyl)imidazo[1,5-a]quinoxaline-8-carboxamide] | 224 nM | > 10000 nM | >44.6
CCC(C1CC1)N(Cc1ccc(C(F)(F)F)cn1)C(=O)c1ccc2nc(N)c3cncn3c2c1 (stereo not drawn) [Example 154, 4-amino-N-(1-cyclopropylpropyl)-N-((5-(trifluoromethyl)pyridin-2-yl)methyl)imidazo[1,5-a]quinoxaline-8-carboxamide] | 22 nM | 406 nM | 18.5
Cc1cc2nc(N)c3cnc(C)n3c2cc1C(=O)N(C)Cc1ccc(C(F)(F)F)cn1 [Example 231, 4-amino-N,1,7-trimethyl-N-((5-(trifluoromethyl)pyridin-2-yl)methyl)imidazo[1,5-a]quinoxaline-8-carboxamide] | 174 nM | > 10000 nM | >57.5
Cc1ncc2c(N)nc3ccc(C(=O)N(Cc4ccc(C(F)(F)F)cn4)[C@H](C)c4ncccn4)cc3n12 [Example 1, (R)-4-amino-1-methyl-N-(1-(pyrimidin-2-yl)ethyl)-N-((5-(trifluoromethyl)pyridin-2-yl)methyl)imidazo[1,5-a]quinoxaline-8-carboxamide] | 29 nM | 1500 nM | 51.7
Cc1cc2nc(N)c3cncn3c2cc1C(=O)N1C[C@@H](C)CC[C@@H]1c1ccc2scnc2c1 [Example 228, (4-amino-7-methylimidazo[1,5-a]quinoxalin-8-yl)((2R,5S)-2-(benzo[d]thiazol-5-yl)-5-methylpiperidin-1-yl)methanone] | 102 nM | 5320 nM | 52.1
Cn1cc(N(C(=O)c2cc3c(cc2F)nc(N)c2cncn23)[C@@H]2COc3nc(C(F)(F)F)ccc32)cn1 [Example 219, (S)-4-amino-7-fluoro-N-(1-methyl-1H-pyrazol-4-yl)-N-(6-(trifluoromethyl)-2,3-dihydrofuro[2,3-b]pyridin-3-yl)imidazo[1,5-a]quinoxaline-8-carboxamide] | 3 nM | 257 nM | 85.7
CN(C(=O)c1ccc2nc(N)c3cncn3c2c1)C1COCc2cc(C(F)(F)F)ccc21 (stereo not drawn) [Example 179, 4-amino-N-methyl-N-(7-(trifluoromethyl)isochroman-4-yl)imidazo[1,5-a]quinoxaline-8-carboxamide] | 67 nM | 3720 nM | 55.5
Cn1cc(N(Cc2ccc(C(F)(F)F)cn2)C(=O)c2ccc3nc(N)c4cncn4c3c2)cn1 [Example 149, 4-amino-N-(1-methyl-1H-pyrazol-4-yl)-N-((5-(trifluoromethyl)pyridin-2-yl)methyl)imidazo[1,5-a]quinoxaline-8-carboxamide] | 50 nM | 7210 nM | 144.1
Nc1nc2cc(Cl)c(C(=O)N(Cc3ccc(C(F)(F)F)nn3)CC3CC3)cc2n2cncc12 [Example 212, 4-amino-7-chloro-N-(cyclopropylmethyl)-N-((6-(trifluoromethyl)pyridazin-3-yl)methyl)imidazo[1,5-a]quinoxaline-8-carboxamide] | 8 nM | 383 nM | 47.9
C[C@H](c1ncccn1)N(Cc1ccc(C(F)(F)F)cn1)C(=O)c1ccc2nc(N)c3c(cnn3C)c2c1 [Comparative compound 1, reference compound] | 16.3 nM | 42.7 nM | 2.6

Now from value to molecule, other results behind:

IC50 [1] | IC50 [2] | Compound | Selectivity [1]
2 nM | 70 nM | Cc1cc2nc(N)c3cncn3c2cc1C(=O)N(c1cnn(C)c1)[C@@H]1COc2cc(C(F)(F)F)ccc21 [Example 207a, (S)-4-amino-7-methyl-N-(1-methyl-1H-pyrazol-4-yl)-N-(6-(trifluoromethyl)-2,3-dihydrobenzofuran-3-yl)imidazo[1,5-a]quinoxaline-8-carboxamide] | 35
330 nM | 5100 nM | Nc1nc2ccc(C(=O)N(CC3CC3)[C@@H]3COc4nc(C(F)(F)F)ccc43)cc2n2cncc12 [Example 181a, (S)-4-amino-N-(cyclopropylmethyl)-N-(6-(trifluoromethyl)-2,3-dihydrofuro[2,3-b]pyridin-3-yl)imidazo[1,5-a]quinoxaline-8-carboxamide] | 15.5
41 nM | 2240 nM | Cc1cc2nc(N)c3cncn3c2cc1C(=O)N(c1cnn(C)c1)[C@@H]1COc2nc(C(F)(F)F)ccc21 [Example 206a, (S)-4-amino-7-methyl-N-(1-methyl-1H-pyrazol-4-yl)-N-(6-(trifluoromethyl)-2,3-dihydrofuro[2,3-b]pyridin-3-yl)imidazo[1,5-a]quinoxaline-8-carboxamide] | 54.5
55 nM | 2060 nM | C[C@@H]1COC[C@H](c2ccc(C(F)(F)F)cn2)N1C(=O)c1ccc2nc(N)c3cncn3c2c1 [Example 14a, (4-aminoimidazo[1,5-a]quinoxalin-8-yl)((3R,5S)-3-methyl-5-(5-(trifluoromethyl)pyridin-2-yl)morpholino)methanone] | 37.4
4 nM | 381 nM | Cn1cc(N(C(=O)c2ccc3nc(N)c4cncn4c3c2)[C@@H]2COc3cc(C(F)(F)F)ccc32)cn1 [Example 30a, (S)-4-amino-N-(1-methyl-1H-pyrazol-4-yl)-N-(6-(trifluoromethyl)-2,3-dihydrobenzofuran-3-yl)imidazo[1,5-a]quinoxaline-8-carboxamide] | 95.3
